Data set [1] deals with Candida albicans ATCC 90028. Kind of data set: multi-point inoculation onto Columbia agar plates. Format: cell-based. The conditions noted are these: substrate 300 mg/L, FAC 500 mg/L, 18 h at 37° C. in air. The method, then:
(§1) The specificity of action of both DHN-β-D-glucuronide (2) and of catechol-β-D-glucuronide (1), as well as their 6′-methyl esters (4 and 6), was first established using multi-point inoculation of 20 different microbial strains onto Columbia agar plates. The strains chosen represented species commonly encountered in diagnostic microbiology. The substrates were incorporated into the agar at a concentration of 300 mg/L with an iron salt, ferric ammonium citrate, (hereinafter known as FAC) at 500 mg/L. The plates were incubated for 18 h at 37° C. in air.

The test system of data set [2] is Staphylococcus epidermidis NCTC 11047. The experiment in a line: multi-point inoculation onto Columbia agar plates. Format: cell-based. The conditions noted are these: substrate 300 mg/L, FAC 500 mg/L, 18 h at 37° C. in air. On the procedure:
as §1

The subject of data set [3] is Salmonella typhimurium NCTC 74. The experiment in a line: multi-point inoculation onto Columbia agar plates. Format: cell-based. The conditions noted are these: substrate 300 mg/L, FAC 500 mg/L, 18 h at 37° C. in air. On the procedure: as §1
Data set [4] relates to Enterococcus faecalis NCTC 775. Kind of data set: multi-point inoculation onto Columbia agar plates. Format: cell-based. The conditions noted are these: substrate 300 mg/L, FAC 500 mg/L, 18 h at 37° C. in air. The method, then:
as §1

The subject of data set [5] is Staphylococcus aureus NCTC 6571. Kind of data set: multi-point inoculation onto Columbia agar plates. Format: cell-based. The conditions noted are these: substrate 300 mg/L, FAC 500 mg/L, 18 h at 37° C. in air. The method, then:
as §1

Data set [6] deals with Acinetobacter baumanaii NCTC 19606. The experiment in a line: multi-point inoculation onto Columbia agar plates. The conditions noted are these: substrate 300 mg/L, FAC 500 mg/L, 18 h at 37° C. in air. Format: cell-based. The method, then:
as §1

Data set [7] deals with Escherichia coli NCTC 10418. Kind of data set: multi-point inoculation onto Columbia agar plates. Format: cell-based. The conditions noted are these: for intensity of the colour / performance compared with the other substrates: comparison in words, Columbia agar with FAC; for colour: substrate 300 mg/L, FAC 500 mg/L, 18 h at 37° C. in air. The method, then: as §1
The subject of data set [8] is Staphylococcus aureus (MRSA) NCTC 11939. Kind of data set: multi-point inoculation onto Columbia agar plates. Format: cell-based. The conditions noted are these: substrate 300 mg/L, FAC 500 mg/L, 18 h at 37° C. in air. On the procedure:
as §1

The test system of data set [9] is Klebsiella pneumoniae NCTC 9528. The experiment in a line: multi-point inoculation onto Columbia agar plates. Format: cell-based. The conditions noted are these: substrate 300 mg/L, FAC 500 mg/L, 18 h at 37° C. in air. On the procedure:
as §1

The test system of data set [10] is Streptococcus pyogenes NCTC 8306. Kind of data set: multi-point inoculation onto Columbia agar plates. The conditions noted are these: substrate 300 mg/L, FAC 500 mg/L, 18 h at 37° C. in air. Format: cell-based. The method, then:
as §1

Data set [11] deals with Listeria monocytogenes NCTC 11994. Kind of data set: multi-point inoculation onto Columbia agar plates. Format: cell-based. The conditions noted are these: substrate 300 mg/L, FAC 500 mg/L, 18 h at 37° C. in air. On the procedure: as §1
Data set [12] concerns Enterococcus faecium NCTC 7171. Kind of data set: multi-point inoculation onto Columbia agar plates. Format: cell-based. The conditions noted are these: substrate 300 mg/L, FAC 500 mg/L, 18 h at 37° C. in air. The method, then: as §1
In data set [13] the test system is Yersinia enterocolitica NCTC 11176. Kind of data set: multi-point inoculation onto Columbia agar plates. Format: cell-based. The conditions noted are these: substrate 300 mg/L, FAC 500 mg/L, 18 h at 37° C. in air. The method, then: as §1
The test system of data set [14] is Serratia marcescens NCTC 10211. Kind of data set: multi-point inoculation onto Columbia agar plates. Format: cell-based. The conditions noted are these: substrate 300 mg/L, FAC 500 mg/L, 18 h at 37° C. in air. On the procedure: as §1
For data set [15], the system named is Candida glabrata NCPF 3943. The experiment in a line: multi-point inoculation onto Columbia agar plates. Format: cell-based. The conditions noted are these: substrate 300 mg/L, FAC 500 mg/L, 18 h at 37° C. in air. The method, then:
as §1

Data set [16] has as its system Burkholderia cepacia NCTC 10931. The experiment in a line: multi-point inoculation onto Columbia agar plates. Format: cell-based. The conditions noted are these: substrate 300 mg/L, FAC 500 mg/L, 18 h at 37° C. in air. On the procedure: as §1
Data set [17] has as its system Enterobacter cloacae NCTC 11936. Kind of data set: multi-point inoculation onto Columbia agar plates. Format: cell-based. The conditions noted are these: substrate 300 mg/L, FAC 500 mg/L, 18 h at 37° C. in air. The method, then:
as §1

In data set [18] the test system is Providencia rettgeri NCTC 7475. The experiment in a line: multi-point inoculation onto Columbia agar plates. The conditions noted are these: substrate 300 mg/L, FAC 500 mg/L, 18 h at 37° C. in air. Format: cell-based. The method, then: as §1
In data set [19] the test system is Bacillus subtilis NCTC 9372. The experiment in a line: multi-point inoculation onto Columbia agar plates. Format: cell-based. The conditions noted are these: substrate 300 mg/L, FAC 500 mg/L, 18 h at 37° C. in air. On the procedure: as §1
The subject of data set [20] is Pseudomonas aeruginosa NCTC 10662. Kind of data set: multi-point inoculation onto Columbia agar plates. The conditions noted are these: substrate 300 mg/L, FAC 500 mg/L, 18 h at 37° C. in air. Format: cell-based. On the procedure:
as §1

For data set [21], the system named is 20 different microbial strains. Kind of data set: specificity of action on 20 different microbial strains, Columbia agar. The conditions noted are these: 19 organisms other than E. coli NCTC 10418, FAC. Format: cell-based. On the procedure: as §1
Of the 20 strains, only the β-D-glucuronidase-positive strain of E. coli, (E. coli NCTC 10418) was able to hydrolyse the substrates. This organism generated diffuse, purple-brown colonies with the catechol substrates and diffuse, maroon colonies with the DHN substrates. Essentially identical results were obtained if other iron salts (e.g. iron(II) gluconate, iron(II) acetate, iron(II) citrate, iron(II) acetylacetonate and iron(III) acetylacetonate) were substituted in place of FAC. The iron compound can be either iron(II) (i.e. ferrous) or iron(III) (i.e. ferric). Both types of compound work equally, and the coloured chelates were still formed when the plates were incubated under anaerobic conditions, which is another useful feature of the present invention. The substrates may also be autoclaved at 116° C. for 20 minutes with no decrease in sensitivity. It will be appreciated that the media and the reagents will all contain at least traces of iron compounds. […] In contrast, supplementing the growth media with compounds of other metals gave either no coloured endpoint or an extremely poor one to visualise. […] Therefore the latter substrates were preferred for more extensive evaluation. […] For convenience, further evaluation of catechol-β-D-glucuronide and DHN-β-D-glucuronide was conducted with the CHA salt forms only (1 and 2b). In the present invention the counter ion of the glucuronide is not considered to be of special significance. For acidic enzyme substrates (including glucuronides), a variety of different counter ions, both inorganic and organic, are well known in the prior art.

Where a name gives a salt, the structure may show the parent alone.

Take `O=C(O)C1OC(Oc2ccccc2O)C(O)C(O)C1O` (as salt: salt) [Compound 1, Catechol β-D-Glucuronide CHA Salt]: the melting point is 208 to 210 °C.

For `O=C(O)C1OC(Oc2cc3ccccc3cc2O)C(O)C(O)C1O` (as salt: salt) [Compound 2b, DHN-β-D-Glucuronide CHA Salt], the melting point was in the range of 223 to 224 °C.

Compound `O=C([O-])C1OC(Oc2cc3ccccc3cc2O)C(O)C(O)C1O.[Na+]` [Compound 2a, DHN-β-D-Glucuronide Sodium Salt] displayed a melting point of 53 to 55 °C. Besides, the colour entry in data set [1] was “−”. The colour result in [2] is “−”. Moreover, the colour result in data set [3] is “−”. Besides, the colour entry in data set [4] is recorded as “−”. Also, the colour entry in [5] is “−”. Moreover, in data set [6], the colour result is listed as “−”. Moreover, in data set [7], the “intensity of the colour / performance compared with the other substrates” value is recorded as “performed the same as its CHA salt (2b)” and the colour result was “++”. In data set [8], the colour entry was “−”. For the same compound, in [9], the colour result is on record as “−”. The colour entry in data set [10] is recorded as “−”. Also, the colour entry in data set [11] is on record as “−”. For the same compound, in data set [12], the colour entry is listed as “−”. Besides, in data set [13], the colour result is reported as “−”. Also, the colour entry in [14] is recorded as “−”. In data set [15], the colour result was “−”. Besides, the colour result in [16] is recorded as “−”. The colour entry in data set [17] was “−”. For the same compound, the colour entry in [18] is reported as “−”. In addition, in [19], the colour result is reported as “−”. In addition, the colour result in [20] is given as “−”. In data set [21], the “result with the other 19 organisms” value is “uniformly negative”.

As to `COC(=O)C1OC(Oc2ccccc2O)C(OC(C)=O)C(OC(C)=O)C1OC(C)=O` [Compound 3, Catechol 2′,3′,4′,-tri-O-acetyl β-D-glucuronide-6′-methyl ester], the melting point was in the range of 128 to 130 °C.

Turning to `COC(=O)C1OC(Oc2ccccc2O)C(O)C(O)C1O` [Compound 4, Catechol β-D-Glucuronide-6′-Methyl Ester], the colour entry in data set [1], in data set [2], in data set [3], in [4], in [5] and in [6] was “−” throughout. Moreover, the colour entry is on record as “+” in data set [7]; “−” in data set [8]; “−” in [9]; “−” in [10]; “−” in data set [11]; “−” in [12]. Moreover, the colour entry in data set [13], in data set [14], in data set [15], in data set [16], in [17] and in [18] was “−” in each case. The colour entry in [19] and in data set [20] was “−” each time. Also, the “intensity of the colour / performance compared with the other substrates” value in data set [7] was “noticeably inferior”. The “result with the other 19 organisms” value in data set [21] is recorded as “uniformly negative”.

Consider `COC(=O)C1OC(Oc2cc3ccccc3cc2O)C(OC(C)=O)C(OC(C)=O)C1OC(C)=O` [Compound 5, DHN-2′,3′,4′-tri-O-acetyl-β-D-glucuronide-6-methyl ester], for which the melting point fell in the range of 191 to 192 °C.

In the case of `COC(=O)C1OC(Oc2cc3ccccc3cc2O)C(O)C(O)C1O` [Compound 6, DHN-β-D-Glucuronide-6′-Methyl Ester], the colour entry in data set [1], in data set [2], in [3], in [4], in data set [5] and in data set [6] was “−” in each case. In addition, the colour result is reported as “+” in [7]; “−” in data set [8]; “−” in data set [9]; “−” in [10]; “−” in data set [11]; “−” in data set [12]. The colour entry in data set [13], in data set [14], in data set [15], in [16], in data set [17] and in data set [18] was “−” throughout. Further, the colour entry in data set [19] and in data set [20] was “−” in each case. Moreover, in [7], the “intensity of the colour / performance compared with the other substrates” value is listed as “noticeably inferior”. In addition, in data set [21], the “result with the other 19 organisms” value was “uniformly negative”.

These data come from patent US9879303B2, “Chromogenic glucuronidase substrates and uses” (Glycosynth Limited, priority 2013, dated 2018).
